Results reported in patent US5767141A, “Substituted propane derivatives, a process for their preparation and the use of the compounds for treating diseases” (Hoechst Aktiengesellschaft, priority 1994, dated 1998).

Experiments:
[1] = molecular target: T1, glucose-6-phosphatase system (Rattus norvegicus, UniProt F7EWB7); assay: inhibition of the glucose-6-phosphatase system, enzyme assay in liver microsomes (phosphate liberated from glucose 6-phosphate); type: biochemical, male Wistar rats
T1 construct: To prepare the microsome fraction containing the glucose-6-phosphatase, fresh liver organs from male Wistar rats were used; from tissue; host or cells: liver microsome fraction of male Wistar rats
T1 sequence (F7EWB7 1-429): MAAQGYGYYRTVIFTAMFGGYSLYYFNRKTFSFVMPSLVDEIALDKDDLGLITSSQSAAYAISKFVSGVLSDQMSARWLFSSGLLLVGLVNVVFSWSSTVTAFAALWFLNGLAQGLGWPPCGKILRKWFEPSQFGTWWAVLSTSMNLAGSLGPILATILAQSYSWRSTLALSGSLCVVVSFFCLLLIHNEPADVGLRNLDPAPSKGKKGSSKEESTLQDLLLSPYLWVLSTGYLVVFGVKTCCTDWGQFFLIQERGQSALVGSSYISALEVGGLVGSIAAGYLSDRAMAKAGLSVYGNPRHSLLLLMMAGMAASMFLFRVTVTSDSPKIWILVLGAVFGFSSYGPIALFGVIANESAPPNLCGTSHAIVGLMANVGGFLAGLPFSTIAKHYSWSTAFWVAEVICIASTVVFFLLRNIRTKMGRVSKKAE
Procedure: The effect of the compounds according to the invention on the glucose-6-phosphatase system was investigated in an enzyme assay in liver microsomes.
To prepare the microsome fraction containing the glucose-6-phosphatase, fresh liver organs from male Wistar rats were used and were processed as described in the literature [Canfield, W. K. and Arion, W. J., J. Biol. Chem. 263, 7458-7460, (1988)]. This microsome fraction can be stored at -70° C. for at least 2 months without significant loss of activity.
The glucose-6-phosphatase activity was detected as indicated in the literature (Arion, W. J. in Methods Enzymol. 174, Academic Press 1989, pages 58-67) by determination of the phosphate liberated from glucose 6-phosphate. 0.1 ml of assay mixture contained glucose 6-phosphate (1 mmol/l), the test substance, 0.1 mg of microsome fraction and 100 mmol/l HEPES buffer (4-(2-hydroxyethyl)piperazine-1-ethanesulfonic acid), pH 7.0. The reaction was started by adding the enzyme. After 20 minutes at room temperature, the reaction was stopped by adding 0.2 ml of phosphate reagent. The sample was incubated at 37° C. for 30 min, and the absorption (A) of the blue color was subsequently measured at 570 nm. The inhibitory activity of the test substance emerged from comparison with a control reaction which contained no test substance according to the formula [formula] […]

glucose-6-phosphatase = conditions: qualitative, literature; cited from earlier work

| SMILES | inhibition of the glucose-6-phosphatase system (in words) ([1]; qualitative statement) | IC50 ([1]; rat liver microsome fraction, glucose 6-phosphate 1 mmol/l, pH 7.0, 20 minutes at room temperature, read-out: IC50 (concentration for 50% inhibition of enzyme activity)) [µM] | inhibition of glucose-6-phosphatase (in words) (glucose-6-phosphatase) |
| --- | --- | --- | --- |
| CC(C)(COC(=O)/C=C(/c1ccccc1)n1cnc2ccccc21)C(OCCCc1ccc(Cl)cc1)C(=O)O (racemic) [Example 1, (±)-4-(3Z-(1-Benzimidazolyl)-3-phenylpropenoyloxy)-2-(4-chlorophenylpropyloxy)-3,3-dimethylbutanoic acid] | inhibitors of the glucose-6-phosphatase system | 4 |  |
| S=C=Nc1ccccc1C=Cc1ccccc1N=C=S [2,2'-diisothiocyanatostilbene] |  |  | non-specific inhibitors of glucose-6-phosphatase |
| CC(=O)Oc1ccccc1C=Cc1ccccc1N=C=S [2-iso-thiocyanato-2'-acetoxystilbene] |  |  | non-specific inhibitors of glucose-6-phosphatase |
| O=C(O)c1cc(SSc2ccc([N+](=O)[O-])c(C(=O)O)c2)ccc1[N+](=O)[O-] [5,5'-dithiobis-2-nitrobenzoic acid] |  |  | non-specific inhibitors of glucose-6-phosphatase |
| O=C(CCc1ccc(O)cc1)c1c(O)cc(O)cc1O[C@@H]1O[C@H](CO)[C@@H](O)[C@H](O)[C@H]1O [phlorrhizin] |  |  | non-specific inhibitors of glucose-6-phosphatase |
